Blank lines part the entries; values can stand above or below the compound they belong to.
Legend:
[1] = biological target: T1, rhCOX-2 (Homo sapiens, UniProt P35354); assay: Inhibition of recombinant human COX-2 (PGH2 converted to PGF2α, EIA); format: biochemical; conditions: for IC50: human recombinant COX-2, 30 min preincubation, 37° C.
T1 construct: made in house; microsomal preparation
T1 sequence (P35354 18-604): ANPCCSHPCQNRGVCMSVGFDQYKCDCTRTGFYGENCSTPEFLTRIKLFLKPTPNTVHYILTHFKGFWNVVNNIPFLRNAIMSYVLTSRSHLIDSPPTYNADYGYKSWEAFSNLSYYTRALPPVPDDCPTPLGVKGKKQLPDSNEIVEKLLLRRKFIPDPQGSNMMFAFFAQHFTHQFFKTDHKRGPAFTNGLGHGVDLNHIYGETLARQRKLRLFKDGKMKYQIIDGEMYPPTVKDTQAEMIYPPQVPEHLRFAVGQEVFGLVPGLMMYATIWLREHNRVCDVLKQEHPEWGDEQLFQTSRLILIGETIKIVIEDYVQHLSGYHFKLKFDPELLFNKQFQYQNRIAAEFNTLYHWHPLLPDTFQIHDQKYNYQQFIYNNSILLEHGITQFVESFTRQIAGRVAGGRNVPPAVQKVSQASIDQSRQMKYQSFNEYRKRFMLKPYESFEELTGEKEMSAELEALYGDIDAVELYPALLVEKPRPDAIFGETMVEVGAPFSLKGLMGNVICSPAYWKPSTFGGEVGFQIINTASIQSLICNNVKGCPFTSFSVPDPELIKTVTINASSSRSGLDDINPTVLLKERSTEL
Method: (§1) Representative compounds of this invention were evaluated for inhibition of COX-2 and COX-1 enzymes as follows. Human COX-1 and COX-2 cDNAs were cloned from human monocytes, untreated and LPS-treated respectively, by RT-PCR using oligonucleotide primers based on published hCOX-1 and hCOX-2 sequences (Jones et al., J. Biol. Chem., 268, 9049 (1993)). The cDNAs were then transfected into either Sf9 or CHO cells and subsequently converted into a microsomal preparation as described by Glaser et al (Eur. J. Pharmacol. 281, 107-111 (1995)). The microsomal human recombinant enzymes were diluted with buffer (100 mM Tris, pH 7.8 at 37° C.) containing 0.5 mM phenol ([…] total volume). The enzyme preparations were preincubated with vehicle (DMSO) or compounds in DMSO (1 % DMSO in final assay) for 30 min at 37° C. Excess hematin was added 1 min prior to initiation of reaction (1.25 mM final hematin) with 30 mM arachidonic acid (sodium salt). Final assay volume was 1.0 ml (100 mM Tris (pH 7.8), 0.5 mM phenol, 1.25 mM hematin and 30 mM arachidonic acid at 37° C.).
The reaction was incubated for 35 sec (maximum level of PGH2 accumulation as determined from time course studies), and terminated by addition of […] of SnCl2 (1 mg/ml) in 0.1N HCl. PGH2 is quantitatively converted to PGF2a by this reaction (50% efficiency of total conversion). The pH of each tube is adjusted to pH 3.0-3.5 with 0.1N--NaOH and extracted twice with 1.5 ml of ethyl acetate (75-90% efficiency per extraction). Combined ethyl acetate extracts were dried under N2 (g) and redissolved in EIA buffer (2.0 ml), and PGF2α ( was quantified by EIA.

[2] = biological target: T2, purified ovine COX-1 (Ovis aries, UniProt P05979); assay: Inhibition of purified ovine COX-1 (PGH2 converted to PGF2α, EIA); format: biochemical; conditions: for inhibition at 90 µM / inhibition at 30 µM / inhibition at 270 µM / inhibition at 10 µM: read-out: % inh of pur. bovine COX-1
T2 construct: purchased Cayman Chemicals (Ann Arbor, Mich.)
T2 sequence (P05979 25-600): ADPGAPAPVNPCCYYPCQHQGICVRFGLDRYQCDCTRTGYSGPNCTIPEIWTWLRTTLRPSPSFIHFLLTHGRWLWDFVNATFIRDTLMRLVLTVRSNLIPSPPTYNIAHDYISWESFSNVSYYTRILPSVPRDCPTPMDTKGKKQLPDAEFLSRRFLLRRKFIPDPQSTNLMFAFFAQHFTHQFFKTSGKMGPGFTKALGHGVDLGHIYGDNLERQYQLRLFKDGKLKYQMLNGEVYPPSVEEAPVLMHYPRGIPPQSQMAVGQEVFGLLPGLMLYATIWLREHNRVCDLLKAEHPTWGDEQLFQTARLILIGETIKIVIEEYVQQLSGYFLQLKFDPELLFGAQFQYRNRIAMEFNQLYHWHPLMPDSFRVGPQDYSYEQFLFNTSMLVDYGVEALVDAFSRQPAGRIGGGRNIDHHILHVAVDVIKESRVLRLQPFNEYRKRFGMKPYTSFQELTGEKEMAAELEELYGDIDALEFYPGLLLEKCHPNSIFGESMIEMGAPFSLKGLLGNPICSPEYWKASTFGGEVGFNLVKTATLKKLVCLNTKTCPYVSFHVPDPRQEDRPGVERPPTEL
Method: [The source words this procedure for another species and reports this species under the same test.] as §1, with “C.). The reaction was incubated for 35 sec (maximum level of PGH2 accumulation as determined from time course studies), and terminated by addition of […] of SnCl2 (1 mg/ml) in 0.1N HCl. PGH2 is quantitatively converted to PGF2a by this reaction (50% efficiency of total conversion). The pH of each tube is adjusted to pH 3.0-3.5 with 0.1N--NaOH and extracted twice with 1.5 ml of ethyl acetate (75-90% efficiency per extraction).” for “C.).”

[3] = tested on: COX-2; conditions: literature; cited from earlier work
[4] = Rogers et al., Neurology 43, 1609-1611 (1993); cited from earlier work
[5] = Futaki et al., Gen. Pharmac. 24, 105-110, 1993; cited from earlier work
[6] = Futaki et al., Gen. Pharmac. 24, 105-110, 1993; cited from earlier work; remark: listed apart in the source

Structure (SMILES): CCCC1(CC(=O)O)OCCc2c1[nH]c1c(C)ccc(C#N)c21 (centres unmarked) [Example 2, 5-Cyano-8-methyl-1-propyl-1,3,4,9-tetrahydropyrano[3,4-b]indole-1-acetic acid]
inhibition at 3 µM ([1]; at 3 μM, read-out: % inh of rhCOX-2): 38%
inhibition at 90 µM [2]: 86%

Structure (SMILES): CCC1(CC(=O)O)OCCc2c1[nH]c1cccc(C#N)c21 (centres unmarked) [Example 3, 5-Cyano-1-ethyl-1,3,4,9-tetrahydropyrano[3,4-b]indole-1-acetic acid]
IC50 [1]: 0.57 µM
inhibition at 30 µM [2]: 47%
inhibition at 270 µM [2]: 31%

Structure (SMILES): CCCC1(CC(=O)O)OCCc2c1[nH]c1cccc(C#N)c21 (centres unmarked) [Example 4, 5-Cyano-1-propyl-1,3,4,9-tetrahydropyrano[3,4-b]indole-1-acetic acid]
IC50 [1]: 1.7 µM
IC50 ([2]; purified ovine COX-1, 30 min preincubation, 37° C.): > 1000 µM

Structure (SMILES): CCCC1(CC(=O)O)CCCc2c1[nH]c1c(F)ccc(C#N)c21 (centres unmarked) [Example 6, 5-Cyano-8-fluoro-1-propyl-2,3,4,9-tetrahydro-1H-carbazole-1-acetic acid]
IC50 [1]: 0.32 µM
inhibition at 10 µM [2]: 73%

Structure (SMILES): C=CCC1(CC(=O)O)CCCc2c1[nH]c1c(C)ccc(C#N)c21 (centres unmarked) [Example 7, 1-Allyl-5-cyano-8-methyl-2,3,4,9-tetrahydro-1H-carbazole-1-acetic acid]
inhibition at 0.3 µM ([1]; at 0.3 μM, read-out: % inh of rhCOX-2): 75%
inhibition at 30 µM [2]: 99%

Structure (SMILES): C=CCC1(CC(=O)O)CCCc2c1[nH]c1c(C#N)ccc(C#N)c21 (centres unmarked) [Example 11, 1-Allyl-5,8-dicyano-2,3,4,9-tetrahydro-1H-carbazole-1-acetic acid]
inhibition at 1 µM ([1]; read-out: % inh of rhCOX-2): 91%
inhibition at 270 µM [2]: 86%

Structure (SMILES): CCCC1(CC(=O)O)CCCc2c1[nH]c1c(C#N)ccc(C#N)c21 (centres unmarked) [Example 12, 5,8-Dicyano-1-propyl-2,3,4,9-tetrahydro-1H-carbazole-1-acetic acid]
inhibition at 1 µM ([1]; read-out: % inh of rhCOX-2): 78%
inhibition at 270 µM [2]: 98%

Structure (SMILES): COc1ccc2c(c1)c(CC(=O)O)c(C)n2C(=O)c1ccc(Cl)cc1 [Indomethacin]
selectivity for inhibition of COX-2 [3]: relatively non-selective inhibitor of COX-1 and COX-2
treatment of Alzheimer's disease [4]: useful in the treatment of Alzheimer's disease

Structure (SMILES): CS(=O)(=O)Nc1ccc([N+](=O)[O-])cc1OC1CCCCC1 [N-(2-cyclohexyloxy-4-nitrophenyl)methanesulfonamide]
antiinflammatory effect [5]: effective antiinflammatory
selectivity for inhibition of COX-2 [3]: selective COX-2 inhibitor
gastric side effects [6]: lacks gastric side effects

Structure (SMILES): CCc1cccc2c3c([nH]c12)C(CC)(CC(=O)O)OCC3 (centres unmarked) [etodolac]
selectivity for inhibition of COX-2 [3]: tenfold

The next lines start with the values.

IC50 [1]: 1 µM
Structure (SMILES): CCCC1(CC(=O)O)OCCc2c1[nH]c1c(F)ccc(C#N)c21 (centres unmarked) [Example 1, 5-Cyano-8-fluoro-1-propyl-1,3,4,9-tetrahydropyrano[3,4-b]indole-1-acetic acid]

IC50 [1]: 0.1 µM
inhibition at 10 µM [2]: 93%
Structure (SMILES): C=CCC1(CC(=O)O)CCCc2c1[nH]c1c(F)ccc(C#N)c21 (centres unmarked) [Example 5, 1-Allyl-5-cyano-8-fluoro-2,3,4,9-tetrahydro-1H-carbazole-1-acetic acid]

inhibition at 1 µM ([1]; read-out: % inh of rhCOX-2): 44%
inhibition at 270 µM [2]: 99%
Structure (SMILES): CCCC1(CC(=O)O)CCCc2c1[nH]c1c(C)ccc(C#N)c21 (centres unmarked) [Example 8, 5-Cyano-1-propyl-8-methyl-2,3,4,9-tetrahydro-1H-carbazole-1-acetic acid]

inhibition at 0.1 µM ([1]; read-out: % inh of rhCOX-2): 21%
inhibition at 90 µM [2]: -37%
Structure (SMILES): CCCC1(CC(=O)O)CCCc2c1[nH]c1c(C(N)=O)ccc(C#N)c21 (centres unmarked) [Example 9, 8-Carboxamido-5-cyano-1-propyl-2,3,4,9-tetrahydro-1H-carbazole-1-acetic acid]

inhibition at 0.1 µM ([1]; read-out: % inh of rhCOX-2): 18%
inhibition at 90 µM [2]: 74%
Structure (SMILES): CCCC1(CC(=O)O)CCCc2c1[nH]c1cccc(C#N)c21 (centres unmarked) [Example 10, 5-Cyano-1-propyl-2,3,4,9-tetrahydro-1H-carbazole-1-acetic acid]

inhibition at 0.1 µM ([1]; read-out: % inh of rhCOX-2): 31%
inhibition at 90 µM [2]: 100%
Structure (SMILES): CCCC1(CC(=O)O)CCCc2c1[nH]c1cc(C#N)ccc21 (centres unmarked) [Example 13, 7-Cyano-1-propyl-2,3,4,9-tetrahydro-1H-carbazole-1-acetic acid]

— patent US5830911A, “Pyranoindole and tetrahydrocarbazole inhibitors of COX-2” (American Home Products Corporation, priority 1997, dated 1998)
